Assays:
Test in all cases: normalised response (% of control), CellTiter-Glo; higher = more viable cells (100 = DMSO, 0 = benzethonium chloride kill control)
Conditions in all cases: incubation time: 72 h
[1] = test system: CAL-85-1
Summary of the method: (§1)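 Plates were normalised with 0.1 % DMSO as 100 and a positive kill control as 0. Breast cancer cell lines in 20 µl suspension had been seeded into 384-well plates with compound at 5 concentrations in 10-fold steps over a compound-specific 10,000-fold range, incubated 72 h, and read for CellTox Green fluorescence (485/520 nm) followed by CellTiter-Glo luminescence. Each value is the normalised signal at a single concentration.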

[2] = test system: HCC1937
Summary of the method: as §1

[3] = test system: MDA-MB-436
Summary of the method: as §1

[4] = test system: Hs578T
Summary of the method: as §1

[5] = test system: MDA-MB-468
Summary of the method: as §1

[6] = test system: MCF-10A
Summary of the method: as §1

[7] = test system: DU-4475
Summary of the method: as §1

[8] = test system: MDA-MB-231
Summary of the method: as §1

[9] = test system: CAL-120
Summary of the method: as §1

[10] = test system: HCC1599
Summary of the method: as §1

[11] = test system: CAL-51
Summary of the method: as §1

[12] = test system: HDQ-P1
Summary of the method: as §1

[13] = test system: BT-549
Summary of the method: as §1

[14] = test system: BT-474
Summary of the method: as §1

[15] = test system: HCC1143
Summary of the method: as §1

[16] = test system: MDA-MB-453
Summary of the method: as §1

[17] = test system: MFM-223
Summary of the method: as §1

[18] = test system: SK-BR-3
Summary of the method: as §1

[19] = test system: CAL-148
Summary of the method: as §1

| SMILES | normalised response [1] | normalised response [2] | normalised response [3] | normalised response [4] | normalised response [5] | normalised response [6] | normalised response [7] | normalised response [8] | normalised response [9] | normalised response [10] | normalised response [11] | normalised response [12] | normalised response [13] | normalised response [14] | normalised response [15] | normalised response [16] | normalised response [17] | normalised response [18] | normalised response [19] |
| --- | --- | --- | --- | --- | --- | --- | --- | --- | --- | --- | --- | --- | --- | --- | --- | --- | --- | --- | --- |
| CC(=O)O[C@]1(C(C)=O)CC[C@H]2[C@@H]3C=C(C)C4=CC(=O)CC[C@]4(C)[C@H]3CC[C@@]21C [Megestrol acetate] (1 nM) | 98.9% | 95.4% | 101% | 96.8% | 88.8% | 101% | 97.5% | 98.5% | 94.9% | 96.5% | 120% | 99.8% | 97.7% | 95.9% | 95.2% | 131% | 98% | 99.2% | 99.9% |
| CC(=O)O[C@]1(C(C)=O)CC[C@H]2[C@@H]3C=C(C)C4=CC(=O)CC[C@]4(C)[C@H]3CC[C@@]21C [Megestrol acetate] (10 nM) | 98% | 95% | 96.3% | 96.9% | 107% | 107% | 96.6% | 101% | 98.1% | 105% | 83.4% | 104% | 100% | 102% | 104% | 103% | 97.1% | 102% | 86.9% |
| S=c1[nH]cnc2nc[nH]c12 [Mercaptopurine] (10 nM) | 94.5% | 93.1% | 98% | 100% | 94.3% | 103% | 98.5% | 96% | 98.5% | 89.8% | 119% | 97.1% | 97.7% | 98.6% | 106% | 93% | 97.2% | 109% | 83.4% |
| Clc1ccc(C(c2ccccc2Cl)C(Cl)Cl)cc1 (stereo not given) [Mitotane] (10 nM) | 106% | 99% | 89.8% | 103% | 94% | 96.4% | 103% | 99.8% | 101% | 132% | 104% | 97% | 104% | 93.1% | 101% | 109% | 99% | 98.1% | 91.2% |
| CCN1CCN(c2ccc(Nc3cc(N(C)C(=O)Nc4c(Cl)c(OC)cc(OC)c4Cl)ncn3)cc2)CC1 [NVP-BGJ398] (0.1 nM) | 93.4% | 95.6% | 97.6% | 97.3% | 88.2% | 101% | 101% | 95.4% | 92% | 98.7% | 74.7% | 101% | 99.8% | 96.7% | 98.2% | 84.1% | 96.6% | 99% | 97.7% |
| CCN1CCN(c2ccc(Nc3cc(N(C)C(=O)Nc4c(Cl)c(OC)cc(OC)c4Cl)ncn3)cc2)CC1 [NVP-BGJ398] (1 nM) | 98.3% | 104% | 97.7% | 103% | 100% | 108% | 99% | 95.8% | 97.2% | 88.4% | 118% | 101% | 96% | 94.9% | 98.8% | 97.7% | 97.1% | 108% | 96.1% |
| COc1cccc2cc(-c3nc([C@H]4CC[C@H](C(=O)O)CC4)n4ncnc(N)c34)[nH]c12 [OSI-027] (10 nM) | 90.7% | 94.2% | 93.8% | 97.7% | 94.6% | 98.8% | 97.1% | 96% | 101% | 92.7% | 82.7% | 100% | 93.8% | 101% | 96.6% | 94.3% | 93% | 77.3% | 88.7% |
| OC[C@H]1O[C@@H](n2cnc3c2N=CNC[C@H]3O)C[C@@H]1O [Pentostatin] (10 nM) | 102% | 98.2% | 97.3% | 106% | 94.4% | 99.9% | 104% | 99.2% | 98% | 104% | 78% | 100% | 91.2% | 98% | 98.9% | 103% | 101% | 101% | 102% |
| N#CC[C@H](C1CCCC1)n1cc(-c2ncnc3[nH]ccc23)cn1 [Ruxolitinib] (10 nM) | 91.2% | 89.3% | 92.2% | 96.2% | 100% | 88.8% | 97.4% | 95.2% | 104% | 76.5% | 121% | 94% | 98.3% | 97% | 100% | 83.8% | 92.6% | 81.5% | 86% |
| C=CC[C@@H]1/C=C(\C)C[C@H](C)C[C@H](OC)[C@H]2O[C@@](O)(C(=O)C(=O)N3CCCC[C@H]3C(=O)O[C@H](/C(C)=C/[C@@H]3CC[C@@H](O)[C@H](OC)C3)[C@H](C)[C@@H](O)CC1=O)[C@H](C)C[C@@H]2OC [Tacrolimus] (10 nM) | 99% | 100% | 106% | 103% | 97.6% | 103% | 105% | 100% | 97.7% | 102% | 110% | 100% | 101% | 105% | 103% | 109% | 98.8% | 119% | 97.4% |

Reference: the supplement of paper PMC4862054
